The text below walks through data of patent publication US20240327380A1, “BTK INHIBITORS” (BIOGEN MA INC., priority 2020, published 2024).

Molecules are shown by their SMILES.

A word on the IC50: it is the concentration at which inhibition is half-maximal.

T1 sequence (Q06187 whole entry): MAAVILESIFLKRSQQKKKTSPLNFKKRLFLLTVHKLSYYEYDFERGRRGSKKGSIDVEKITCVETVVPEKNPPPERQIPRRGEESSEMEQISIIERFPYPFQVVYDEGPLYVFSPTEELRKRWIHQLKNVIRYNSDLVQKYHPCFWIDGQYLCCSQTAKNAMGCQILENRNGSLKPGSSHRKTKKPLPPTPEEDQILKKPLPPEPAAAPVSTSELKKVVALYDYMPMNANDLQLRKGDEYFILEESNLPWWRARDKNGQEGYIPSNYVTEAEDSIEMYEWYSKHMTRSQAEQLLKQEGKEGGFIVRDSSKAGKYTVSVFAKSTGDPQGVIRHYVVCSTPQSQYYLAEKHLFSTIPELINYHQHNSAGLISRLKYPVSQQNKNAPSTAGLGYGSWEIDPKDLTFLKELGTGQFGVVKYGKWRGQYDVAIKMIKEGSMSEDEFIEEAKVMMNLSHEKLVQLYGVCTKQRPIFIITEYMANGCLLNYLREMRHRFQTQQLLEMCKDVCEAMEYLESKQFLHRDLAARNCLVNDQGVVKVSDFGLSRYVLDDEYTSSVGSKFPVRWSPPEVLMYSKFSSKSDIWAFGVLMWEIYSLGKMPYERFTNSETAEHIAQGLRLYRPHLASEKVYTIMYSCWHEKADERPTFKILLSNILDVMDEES

The experiment addresses T1, active BTK enzyme (Upstate 14-552) (Homo sapiens, UniProt Q06187).
T1 construct: purchased Upstate 14-552
Briefly: In Vitro BTK Kinase Assay: Btk-PolyGAT-LS Assay. In kind it is biochemical. To be noted: ATP 10 μM, polyGAT 100 nM, BTK 0.25 nM, 30 minutes, TRF readout. The procedure: In Vitro BTK Kinase Assay: Btk-PolyGAT-LS Assay The purpose of the BTK in vitro assay is to determine compound potency against BTK through the measurement of IC50. Compound inhibition is measured after monitoring the amount of phosphorylation of a fluorescein-labeled polyGAT peptide (Invitrogen PV3611) in the presence of active BTK enzyme (Upstate 14-552), ATP, and inhibitor. The BTK kinase reaction was done in a black 96 well plate (costar 3694). For a typical assay, a 24 μL aliquot of a ATP/peptide master mix (final concentration; ATP 10 μM, polyGAT 100 nM) in kinase buffer (10 mM Tris-HCl pH 7.5, 10 mM MgCl2, 200 μM […], 5 mM DTT, 0.01% Triton X-100, and 0.2 mg/ml casein) is added to each well. Next, […] of a 4-fold, 40× compound titration in 100% DMSO solvent is added, followed by adding 15 μL of BTK enzyme mix in 1× kinase buffer (with a final concentration of 0.25 nM). The assay is incubated for 30 minutes before being stopped with 28 μL of a 50 mM EDTA solution. Aliquots (5 μL) of the kinase reaction are transferred to a low volume white 384 well plate (Coming 3674), and 5 μL of a 2× detection buffer (Invitrogen PV3574, with 4 nM Tb-PY20 antibody, Invitrogen PV3552) is added. The plate is covered and incubated for 45 minutes at room temperature. Time resolved fluorescence (TRF) on Molecular Devices M5 (332 nm excitation; 488 nm emission; 518 nm fluorescein emission) is measured. IC50 values are calculated using a four parameter fit with 100% enzyme activity determined from the DMSO control and 0% activity from the EDTA control.
The compound `Cc1cc(-c2ccncc2N2CCN(C(=O)/C=C/CN3CCN(C)CC3)CC2)ccc1CNC(=O)c1noc(C(C)(C)C)n1` [Example 65, (E)-5-(tert-butyl)-N-(2-methyl-4-(3-(4-(4-(4-methylpiperazin-1-yl)but-2-enoyl)piperazin-1-yl)pyridin-4-yl)benzyl)-1,2,4-oxadiazole-3-carboxamide] gave an IC50 of 1 to 10 nM.

`Cc1cc(-c2ccncc2N2CCN(C(=O)/C=C/CN3CCC3)CC2)ccc1CNC(=O)c1noc(C(C)(C)C)n1` [Example 66, (E)-N-(4-(3-(4-(4-(azetidin-1-yl)but-2-enoyl)piperazin-1-yl)pyridin-4-yl)-2-methylbenzyl)-5-(tert-butyl)-1,2,4-oxadiazole-3-carboxamide] had an IC50 of 1 to 10 nM.

In turn, `Cc1cc(-c2ccncc2N2CCN(C(=O)/C=C/CN3CCOCC3)CC2)ccc1CNC(=O)c1noc(C(C)(C)C)n1` [Example 67, (E)-5-(tert-butyl)-N-(2-methyl-4-(3-(4-(4-morpholinobut-2-enoyl)piperazin-1-yl)pyridin-4-yl)benzyl)-1,2,4-oxadiazole-3-carboxamide] came in with an IC50 of 1 to 10 nM.

As to `CNC/C=C/C(=O)N1CCN(c2cnccc2-c2ccc(CNC(=O)c3noc(C(C)(C)C)n3)c(C)c2)CC1` [Example 68, (E)-5-(tert-butyl)-N-(2-methyl-4-(3-(4-(4-(methylamino)but-2-enoyl)piperazin-1-yl)pyridin-4-yl)benzyl)-1,2,4-oxadiazole-3-carboxamide], the IC50 is 1 to 10 nM.

Regarding `Cc1cc(-c2c(C#N)cncc2N2CCN(C(=O)/C=C/CN(C)C)CC2)ccc1CNC(=O)c1cc(C(C)(C)C)on1` [Example 70, (E)-5-(tert-butyl)-N-(4-(3-cyano-5-(4-(4-(dimethylamino)but-2-enoyl)piperazin-1-yl)pyridin-4-yl)-2-methylbenzyl)isoxazole-3-carboxamide], the IC50 lay within 1 to 10 nM.

As for `Cc1cc(-c2ccncc2N2CCN(C(=O)/C=C/CN(C)C)CC2)ccc1CN1CCc2c(cnn2C(C)(C)C)C1=O` [Example 72, (E)-1-(tert-butyl)-5-(4-(3-(4-(4-(dimethylamino)but-2-enoyl)piperazin-1-yl)pyridin-4-yl)-2-methylbenzyl)-1,5,6,7-tetrahydro-4H-pyrazolo[4,3-c]pyridin-4-one], the IC50 is at most 1 nM.

The compound `Cc1cc(-c2ccncc2N2CCN(C(=O)/C=C/CN(C)C)C(C)C2)ccc1CNC(=O)c1noc(C(C)(C)C)n1` (stereo not drawn) [Example 74, (E)-5-(tert-butyl)-N-(4-(3-(4-(4-(dimethylamino)but-2-enoyl)-3-methylpiperazin-1-yl)pyridin-4-yl)-2-methylbenzyl)-1,2,4-oxadiazole-3-carboxamide] showed an IC50 of at most 1 nM.

In the case of `Cc1cc(-c2ccncc2N2CCN(C(=O)/C=C/CN(C)C)C(C(F)(F)F)C2)ccc1CNC(=O)c1noc(C(C)(C)C)n1` (stereo not drawn) [Example 75, (E)-5-(tert-butyl)-N-(4-(3-(4-(4-(dimethylamino)but-2-enoyl)-3-(trifluoromethyl)piperazin-1-yl)pyridin-4-yl)-2-methylbenzyl)-1,2,4-oxadiazole-3-carboxamide], the IC50 was at most 1 nM.

`Cc1cc(-c2c(F)cncc2N2CCN(C(=O)/C=C/CN(C)C)CC2)ccc1CNC(=O)c1noc(C(C)(C)C)n1` [Example 76, (E)-5-(tert-butyl)-N-(4-(3-(4-(4-(dimethylamino)but-2-enoyl)piperazin-1-yl)-5-fluoropyridin-4-yl)-2-methylbenzyl)-1,2,4-oxadiazole-3-carboxamide] yielded an IC50 of at most 1 nM.

`Cc1cc(-c2c(F)cncc2N2CCN(C(=O)/C=C/CN(C)C)CC2)ccc1CNC(=O)c1noc(C2(C)CC2)n1` [Example 77, (E)-N-(4-(3-(4-(4-(dimethylamino)but-2-enoyl)piperazin-1-yl)-5-fluoropyridin-4-yl)-2-methylbenzyl)-5-(1-methylcyclopropyl)-1,2,4-oxadiazole-3-carboxamide]: the IC50 lay within 1 to 10 nM.

`Cc1cc(-c2c(F)cncc2N2CCN(C(=O)/C=C/CN(C)C)CC2)ccc1CNC(=O)c1nc(C(C)(C)C)no1` [Example 78, (E)-3-(tert-butyl)-N-(4-(3-(4-(4-(dimethylamino)but-2-enoyl)piperazin-1-yl)-5-fluoropyridin-4-yl)-2-methylbenzyl)-1,2,4-oxadiazole-5-carboxamide] yielded an IC50 of at most 1 nM.

In the case of `C=CC(=O)N1CCN(c2cncnc2-c2ccc(CNC(=O)c3nnn(C(C)(C)C)n3)c(C)c2)CC1` [Example 79, N-(4-(5-(4-acryloylpiperazin-1-yl)pyrimidin-4-yl)-2-methylbenzyl)-2-(tert-butyl)-2H-tetrazole-5-carboxamide], the IC50 was at most 1 nM.

`C=CC(=O)N1CCN(c2cncnc2-c2ccc(CNC(=O)c3noc(C(C)(C)C)n3)c(C)c2)CC1` [Example 80, N-(4-(5-(4-acryloylpiperazin-1-yl)pyrimidin-4-yl)-2-methylbenzyl)-5-(tert-butyl)-1,2,4-oxadiazole-3-carboxamide]: the IC50 is at most 1 nM.

Consider `C=C(F)C(=O)N1CCN(c2cncnc2-c2ccc(CNC(=O)c3noc(C(C)(C)C)n3)c(C)c2)CC1` [Example 81, 5-(tert-butyl)-N-(4-(5-(4-(2-fluoroacryloyl)piperazin-1-yl)pyrimidin-4-yl)-2-methylbenzyl)-1,2,4-oxadiazole-3-carboxamide], for which the IC50 is 1 to 10 nM.

In turn, `C=CC(=O)N1CCN(c2cncnc2-c2ccc(CNC(=O)c3nc(C(C)(C)C)no3)c(C)c2)CC1` [Example 83, N-(4-(5-(4-acryloylpiperazin-1-yl)pyrimidin-4-yl)-2-methylbenzyl)-3-(tert-butyl)-1,2,4-oxadiazole-5-carboxamide] had an IC50 of at most 1 nM.

`C=CC(=O)N1CCN(c2cncnc2-c2ccc(CNC(=O)c3nc(C4(C)CC4)no3)c(C)c2)CC1` [Example 84, N-(4-(5-(4-acryloylpiperazin-1-yl)pyrimidin-4-yl)-2-methylbenzyl)-3-(1-methylcyclopropyl)-1,2,4-oxadiazole-5-carboxamide] returned an IC50 of at most 1 nM.

`CN(C)C/C=C/C(=O)N1CCN(c2cnccc2-c2ccc(CNC(=O)c3noc(C(C)(C)C)n3)c(C(F)F)c2)CC1` [Example 87, (E)-5-(tert-butyl)-N-(2-(difluoromethyl)-4-(3-(4-(4-(dimethylamino)but-2-enoyl)piperazin-1-yl)pyridin-4-yl)benzyl)-1,2,4-oxadiazole-3-carboxamide] displayed an IC50 of at most 1 nM.

`CN(C)C/C=C/C(=O)N1CCN(c2cnccc2-c2ccc(CNC(=O)c3noc(C4(C)CC4)n3)c(C(F)F)c2)CC1` [Example 88, (E)-N-(2-(difluoromethyl)-4-(3-(4-(4-(dimethylamino)but-2-enoyl)piperazin-1-yl)pyridin-4-yl)benzyl)-5-(1-methylcyclopropyl)-1,2,4-oxadiazole-3-carboxamide] displayed an IC50 of 1 to 10 nM.

In turn, `CN(C)C/C=C/C(=O)N1CCN(c2cnccc2-c2ccc(CNC(=O)c3nc(C(C)(C)C)no3)c(C(F)F)c2)CC1` [Example 89, (E)-3-(tert-butyl)-N-(2-(difluoromethyl)-4-(3-(4-(4-(dimethylamino)but-2-enoyl)piperazin-1-yl)pyridin-4-yl)benzyl)-1,2,4-oxadiazole-5-carboxamide] gave an IC50 of at most 1 nM.

`CN(C)C/C=C/C(=O)N1CCN(c2cnccc2-c2ccc(CNC(=O)c3noc(C4(C)CC4)n3)c(C(F)(F)F)c2)CC1` [Example 91, (E)-N-(4-(3-(4-(4-(dimethylamino)but-2-enoyl)piperazin-1-yl)pyridin-4-yl)-2-(trifluoromethyl)benzyl)-5-(1-methylcyclopropyl)-1,2,4-oxadiazole-3-carboxamide] showed an IC50 of at most 1 nM.

Consider `CN(C)C/C=C/C(=O)N1CCN(c2cnccc2-c2ccc(CNC(=O)c3nc(C(C)(C)C)no3)c(C(F)(F)F)c2)CC1` [Example 92, (E)-3-(tert-butyl)-N-(4-(3-(4-(4-(dimethylamino)but-2-enoyl)piperazin-1-yl)pyridin-4-yl)-2-(trifluoromethyl)benzyl)-1,2,4-oxadiazole-5-carboxamide], for which the IC50 is at most 1 nM.

`Cc1cc(-c2ccncc2N2CCN(C(=O)/C=C/CN(C)C)CC2)ccc1CNC(=O)c1noc(C2(CF)CC2)n1` [Example 93, (E)-N-(4-(3-(4-(4-(dimethylamino)but-2-enoyl)piperazin-1-yl)pyridin-4-yl)-2-methylbenzyl)-5-(1-(fluoromethyl)cyclopropyl)-1,2,4-oxadiazole-3-carboxamide] yielded an IC50 of at most 1 nM.

Turning to `C=CC(=O)N1CCN(c2cnccc2-c2ccc(CNC(=O)c3noc(C(C)(C)C)c3F)c(C)c2)CC1` [Example 96, N-(4-(3-(4-acryloylpiperazin-1-yl)pyridin-4-yl)-2-methylbenzyl)-5-(tert-butyl)-4-fluoroisoxazole-3-carboxamide], the IC50 was at most 1 nM.

Compound `C=CC(=O)N1CCN(c2cnccc2-c2ccc(CNC(=O)c3ccc(C(F)F)nc3)c(C)c2)CC1` [Example 97, N-(4-(3-(4-acryloylpiperazin-1-yl)pyridin-4-yl)-2-methylbenzyl)-6-(difluoromethyl)nicotinamide] showed an IC50 of 1 to 10 nM.
